Measured values taken from ChEMBL document CHEMBL4613288, “Combined Peptide and Small-Molecule Approach toward Nonacidic THIQ Inhibitors of the KEAP1/NRF2 Interaction” (ACS Med Chem Lett, 2020).

Experiment: Apparent permeability across apical to basolateral side in MDCK-MDR1 cells measured over 60 mins
Format: ADME, cell-based, Canis lupus familiaris
Conditions: dog

| SMILES | Papp A→B at 1 h |
| --- | --- |
| O=C(O)[C@H]1CCCC[C@H]1C(=O)N1CCc2c(OCCO)cccc2[C@H]1CN1C(=O)c2ccccc2C1=O | 9 nm/s |
| O=C(OCc1ccccc1)[C@H]1CCCC[C@H]1C(=O)N1CCc2c(OS(=O)(=O)C(F)(F)F)cccc2C1CN1C(=O)c2ccccc2C1=O (some centres not stated) | 46 nm/s |
